Laboratory results taken from article PMC3757929 (Molecular pharmaceutics, 2013).
Where two headings read alike, the source gives them in different places.

Legend:
[1] = target: T1, prostate specific membrane antigen (PSMA) (Homo sapiens, UniProt Q04609); assay: competitive binding on LNCaP cells with […]-GPI radioligand; format: cell-based
[2] = target: T1, prostate specific membrane antigen (PSMA); assay: as above; format: cell-based; remark: listed apart in the source

T1 sequence (Q04609 whole entry): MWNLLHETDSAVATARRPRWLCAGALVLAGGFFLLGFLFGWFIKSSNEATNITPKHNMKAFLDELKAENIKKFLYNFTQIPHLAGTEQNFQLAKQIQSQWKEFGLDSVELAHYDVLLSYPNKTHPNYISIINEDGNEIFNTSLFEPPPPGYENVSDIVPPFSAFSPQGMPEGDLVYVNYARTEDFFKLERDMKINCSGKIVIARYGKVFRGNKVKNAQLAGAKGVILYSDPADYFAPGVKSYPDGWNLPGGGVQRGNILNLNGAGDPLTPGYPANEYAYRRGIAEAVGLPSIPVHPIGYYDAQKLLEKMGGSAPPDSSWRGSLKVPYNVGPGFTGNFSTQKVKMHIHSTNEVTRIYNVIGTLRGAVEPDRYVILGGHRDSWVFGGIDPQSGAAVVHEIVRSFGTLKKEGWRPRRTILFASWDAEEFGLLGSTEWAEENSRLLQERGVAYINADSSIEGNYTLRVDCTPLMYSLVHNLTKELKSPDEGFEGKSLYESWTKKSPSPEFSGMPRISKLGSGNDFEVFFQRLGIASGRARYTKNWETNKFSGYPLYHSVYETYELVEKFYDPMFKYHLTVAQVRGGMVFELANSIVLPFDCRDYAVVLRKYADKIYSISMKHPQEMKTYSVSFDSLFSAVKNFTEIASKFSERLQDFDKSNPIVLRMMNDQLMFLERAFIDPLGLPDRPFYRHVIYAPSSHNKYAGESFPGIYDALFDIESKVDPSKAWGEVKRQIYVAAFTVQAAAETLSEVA

IC50 [2] [nM]	SMILES	IC50 [1] [nM]
–	O=C(O)CCC(CP(=O)(O)CCC(NC(=O)CCC(C(=O)O)N1CCCN2CCN(CCCN(C(CCC(=O)NC(CCP(=O)(O)CC(CCC(=O)O)C(=O)O)C(=O)O)C(=O)O)CC2)CC1)C(=O)O)C(=O)O (racemic) [H2CBT2G]	129 ± 17
–	O=C(O)CCC(CP(=O)(O)CCC(NC(=O)CCC(C(=O)O)N1CCCN2CCN(CCCN(CC(=O)O)CC2)CC1)C(=O)O)C(=O)O (racemic) [H2CBT1G]	578 ± 81
460 ± 13	NC(CCP(=O)(O)CC(CCC(=O)O)C(=O)O)C(=O)O (racemic) [GPI, 2[(3-amino-3-carboxypropyl)(hydroxy)(phosphinyl)-methyl]pentane-1,5-dioic acid]	–
